From ChEMBL document CHEMBL1159285, “Identification of 3-hydroxy-3-methylglutaric acid (HMG) as a hypoglycemic principle of Spanish moss (Tillandsia usneoides)” (J Nat Prod, 1995)
Counter-ions that a name gives are not always drawn.

Tests used:
[1] = system: Mus musculus; experiment: Hypoglycemic activity in Swiss-Webster mouse assessed as change plasma glucose level at 250 mg/kg, ip after 4 hrs; assay type: functional; conditions: route intraperitoneal
[2] = system: Artemia; experiment: Toxicity in brine shrimp; assay type: organism-based; conditions: in vivo
[3] = Acute toxicity in po dosed mouse; assay type: organism-based; conditions: in vivo
[4] = Acute toxicity in ip dosed mouse; assay type: organism-based; conditions: in vivo
[5] = species on record: Homo sapiens; experiment: Antihypercholesterolemic activity in patient with familial hypercholesterolemia assessed as decrease in plasma cholesterol at 2250 mg/day in 3 divided doses for 8 weeks; assay type: functional; parameters: scale not given: the % may be the effect or the level left
[6] = species on record: Homo sapiens; experiment: Antihypercholesterolemic activity in patient with familial hypercholesterolemia assessed as decrease in plasma cholesterol at 3000 mg/day in 3 divided doses for 8 weeks; assay type: functional; parameters: scale not given: the % may be the effect or the level left
[7] = species on record: Homo sapiens; experiment: Toxicity in patient with familial hypercholesterolemia at 750 to 2250 mg/day in 3 divided doses for 8 weeks; assay type: organism-based; conditions: in vivo, 1344 h
[8] = system: Mus musculus; experiment: Hypoglycemic activity in Swiss-Webster mouse assessed as change plasma glucose level at 62.5 mg/kg, ip after 4 hrs; assay type: functional; conditions: route intraperitoneal
[9] = system: Mus musculus; experiment: Hypoglycemic activity in Swiss-Webster mouse assessed as change plasma glucose level at 125 mg/kg, ip after 4 hrs; assay type: functional; conditions: route intraperitoneal

| Compound | Activity [1] [%] | LC50 [2] [ppm] | further results |
| --- | --- | --- | --- |
| COC(=O)C(O)(CC(=O)O)CC(=O)O | -7.4 | – | – |
| CCOC(=O)C(O)(CC(=O)O)CC(=O)O | -6.6 | – | – |
| COC(=O)CC(O)(CC(=O)OC)C(=O)OC | 29 | – | – |
| COc1cc(-c2oc3cc(O[C@@H]4O[C@H](CO)[C@@H](O)[C@H](O)[C@H]4O)c(OC)c(O)c3c(=O)c2OC)cc(OC)c1O | -1 | 420 | – |
| CCOC(=O)CC(O)(CC(=O)O)C(=O)OCC (stereo not drawn) | -17.3 | – | – |
| COC(=O)CC(O)(CC(=O)O)C(=O)OC (stereo not drawn) | 35.8 | – | – |
| O=C(O)CC(O)(CC(=O)O)C(=O)O [CITRIC ACID] | 47.3 | 50 | – |
| Cc1cn([C@H]2C[C@H](O)[C@@H](CO)O2)c(=O)[nH]c1=O [DOXRIBTIMINE] | 25.5 | > 1000 | – |
| CC(O)(CC(=O)O)CC(=O)O [MEGLUTOL] | -41.7 | 228 | LD50 [3]: 7330 mg/kg; LD50 [4]: 3230 mg/kg; Activity [5]: 11%; Activity [6]: 13%; Activity [7]: Non-toxic; Activity [8]: 7.9%; Activity [9]: -21% |
| O=C(O)CCC(=O)O [SUCCINIC ACID] | 9.9 | 40 | – |
| CCOC(=O)CC(O)(CC(=O)OCC)C(=O)OCC [TRIETHYL CITRATE] | -13.6 | – | – |
